Reference: ChEMBL document CHEMBL3988442, “University of Dundee, Small-Polar-MMV Screening Library” (2021)
Where “and” joins values, the source holds several entries; their conditions need not be identical. Equal entries are not always repeated.

Tests used:
Histidine--tRNA ligase [1] = target: T1, Histidine--tRNA ligase (Leishmania infantum, UniProt A4I591); assay: Leishmania infantum Histidine tRNA synthetase (LdHisRS); format: functional
T1 sequence (A4I591 whole entry): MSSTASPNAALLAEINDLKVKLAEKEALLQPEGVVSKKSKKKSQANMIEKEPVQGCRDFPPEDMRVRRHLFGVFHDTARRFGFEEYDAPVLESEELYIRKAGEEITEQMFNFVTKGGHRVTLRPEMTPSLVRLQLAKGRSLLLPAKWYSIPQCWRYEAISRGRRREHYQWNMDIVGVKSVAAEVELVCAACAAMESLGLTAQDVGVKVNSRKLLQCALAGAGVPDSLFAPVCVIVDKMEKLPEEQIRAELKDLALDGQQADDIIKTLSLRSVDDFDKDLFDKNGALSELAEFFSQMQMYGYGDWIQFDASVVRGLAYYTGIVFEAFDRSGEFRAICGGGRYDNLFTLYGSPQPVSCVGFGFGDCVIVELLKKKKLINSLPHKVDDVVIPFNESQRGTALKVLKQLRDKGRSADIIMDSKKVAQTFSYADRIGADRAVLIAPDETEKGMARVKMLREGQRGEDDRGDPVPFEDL

[2] = target: T2, Aspartate--tRNA(Asp/Asn) ligase (Mycobacterium tuberculosis (strain ATCC 25618 / H37Rv), UniProt P9WFW3); assay: Assay for Asp RNA synthetase-1 from Mycobacterium tuberculosis; format: functional
T2 sequence (P9WFW3 whole entry): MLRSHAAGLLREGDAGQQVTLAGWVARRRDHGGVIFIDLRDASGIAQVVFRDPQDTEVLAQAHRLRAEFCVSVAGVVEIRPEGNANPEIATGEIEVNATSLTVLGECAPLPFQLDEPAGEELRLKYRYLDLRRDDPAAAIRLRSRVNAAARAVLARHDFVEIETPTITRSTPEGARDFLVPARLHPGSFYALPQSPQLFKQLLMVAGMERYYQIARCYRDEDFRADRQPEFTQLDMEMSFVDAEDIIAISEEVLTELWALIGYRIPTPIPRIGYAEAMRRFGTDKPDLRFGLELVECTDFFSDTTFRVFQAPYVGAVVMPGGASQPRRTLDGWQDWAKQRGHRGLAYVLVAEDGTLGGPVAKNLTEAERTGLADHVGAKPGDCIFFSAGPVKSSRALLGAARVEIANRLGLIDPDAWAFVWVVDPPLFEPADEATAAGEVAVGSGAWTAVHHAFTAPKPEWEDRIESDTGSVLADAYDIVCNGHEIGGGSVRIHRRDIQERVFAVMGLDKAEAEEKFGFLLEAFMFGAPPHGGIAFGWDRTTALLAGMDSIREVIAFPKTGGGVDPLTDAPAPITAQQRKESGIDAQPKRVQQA

[3] = target: T3, Ubiquitin-activating enzyme e1, putative (Leishmania donovani (strain BPK282A1), UniProt E9BSI1); assay: Leishmania donovani Ubiquitin Activating Enzyme (LdE1); format: functional
T3 sequence (E9BSI1 whole entry): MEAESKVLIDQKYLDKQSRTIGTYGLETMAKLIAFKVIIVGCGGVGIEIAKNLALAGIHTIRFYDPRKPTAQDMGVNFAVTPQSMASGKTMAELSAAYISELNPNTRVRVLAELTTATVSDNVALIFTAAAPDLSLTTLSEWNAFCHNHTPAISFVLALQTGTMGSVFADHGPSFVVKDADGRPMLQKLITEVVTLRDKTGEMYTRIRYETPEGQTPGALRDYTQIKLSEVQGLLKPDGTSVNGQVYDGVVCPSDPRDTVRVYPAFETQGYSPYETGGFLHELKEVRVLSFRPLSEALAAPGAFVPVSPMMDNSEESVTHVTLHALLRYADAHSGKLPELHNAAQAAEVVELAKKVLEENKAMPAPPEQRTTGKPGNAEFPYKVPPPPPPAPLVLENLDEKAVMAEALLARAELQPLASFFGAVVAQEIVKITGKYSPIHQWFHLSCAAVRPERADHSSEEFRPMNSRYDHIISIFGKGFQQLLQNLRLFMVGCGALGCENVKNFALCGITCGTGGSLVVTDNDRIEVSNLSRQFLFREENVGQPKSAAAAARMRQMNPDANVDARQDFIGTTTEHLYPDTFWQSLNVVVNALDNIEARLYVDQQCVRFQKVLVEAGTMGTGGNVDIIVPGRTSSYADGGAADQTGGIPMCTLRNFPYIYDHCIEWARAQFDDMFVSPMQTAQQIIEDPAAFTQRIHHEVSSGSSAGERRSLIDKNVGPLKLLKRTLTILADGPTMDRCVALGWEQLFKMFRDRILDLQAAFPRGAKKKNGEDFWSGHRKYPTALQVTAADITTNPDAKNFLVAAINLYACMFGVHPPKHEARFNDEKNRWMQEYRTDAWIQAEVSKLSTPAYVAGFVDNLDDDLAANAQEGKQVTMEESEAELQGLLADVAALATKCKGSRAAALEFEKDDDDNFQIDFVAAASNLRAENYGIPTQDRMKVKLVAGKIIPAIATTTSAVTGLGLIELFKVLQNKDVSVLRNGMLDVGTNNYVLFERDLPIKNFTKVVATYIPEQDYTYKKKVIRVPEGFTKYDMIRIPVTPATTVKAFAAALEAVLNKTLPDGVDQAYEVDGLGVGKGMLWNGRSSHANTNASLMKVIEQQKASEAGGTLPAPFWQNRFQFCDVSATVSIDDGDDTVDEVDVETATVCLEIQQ

Lysine--tRNA ligase = Lysine--tRNA ligase (Plasmodium falciparum (isolate 3D7), UniProt Q8IDJ8); assay: Pf-KRS-1 (Lysyl-RNA Synthetase-1, KRS-1, cytosolic KRS) from Plasmodium falciparum. Inhibitor assay, 384 well plate, luminescence read.; format: functional
Sequence of Lysine--tRNA ligase (Q8IDJ8 whole entry): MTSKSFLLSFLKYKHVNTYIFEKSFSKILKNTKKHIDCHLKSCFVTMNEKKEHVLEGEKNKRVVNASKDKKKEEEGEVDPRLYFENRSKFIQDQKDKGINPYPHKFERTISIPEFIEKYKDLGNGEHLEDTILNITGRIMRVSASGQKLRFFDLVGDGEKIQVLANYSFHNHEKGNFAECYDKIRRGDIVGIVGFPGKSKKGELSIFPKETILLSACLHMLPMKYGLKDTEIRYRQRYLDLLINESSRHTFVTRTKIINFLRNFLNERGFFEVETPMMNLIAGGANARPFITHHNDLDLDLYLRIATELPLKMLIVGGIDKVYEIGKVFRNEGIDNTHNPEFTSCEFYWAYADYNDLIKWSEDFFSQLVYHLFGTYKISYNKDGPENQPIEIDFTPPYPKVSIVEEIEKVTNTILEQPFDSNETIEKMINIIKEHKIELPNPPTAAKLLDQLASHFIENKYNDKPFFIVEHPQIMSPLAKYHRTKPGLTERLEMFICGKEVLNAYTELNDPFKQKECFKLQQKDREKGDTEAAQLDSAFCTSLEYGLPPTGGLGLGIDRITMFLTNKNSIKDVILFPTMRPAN

[4] = target: T4, Coenzyme A biosynthesis bifunctional protein CoaBC (Mycobacterium tuberculosis (strain ATCC 25618 / H37Rv), UniProt P9WNZ1); assay: Biomol Green assay for MtCoaBC inhibitor, OD650 read; format: functional
T4 sequence (P9WNZ1 whole entry): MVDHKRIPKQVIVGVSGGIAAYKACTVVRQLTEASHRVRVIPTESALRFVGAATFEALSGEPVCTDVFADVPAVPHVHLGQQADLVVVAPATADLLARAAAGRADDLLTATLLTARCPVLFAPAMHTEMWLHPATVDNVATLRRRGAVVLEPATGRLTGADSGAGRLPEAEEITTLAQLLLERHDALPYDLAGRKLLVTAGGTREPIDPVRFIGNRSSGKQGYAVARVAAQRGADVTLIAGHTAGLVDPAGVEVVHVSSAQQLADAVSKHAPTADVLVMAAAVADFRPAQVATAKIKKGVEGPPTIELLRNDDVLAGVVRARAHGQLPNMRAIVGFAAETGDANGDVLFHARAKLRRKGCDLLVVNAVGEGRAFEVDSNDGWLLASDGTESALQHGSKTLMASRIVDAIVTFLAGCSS

Tryptophan--tRNA ligase = Tryptophan--tRNA ligase (Mycobacterium tuberculosis (strain ATCC 25618 / H37Rv), UniProt P9WFT3); assay: Biochemical assay for Mt-TrpRS; format: functional
Sequence of Tryptophan--tRNA ligase (P9WFT3 whole entry): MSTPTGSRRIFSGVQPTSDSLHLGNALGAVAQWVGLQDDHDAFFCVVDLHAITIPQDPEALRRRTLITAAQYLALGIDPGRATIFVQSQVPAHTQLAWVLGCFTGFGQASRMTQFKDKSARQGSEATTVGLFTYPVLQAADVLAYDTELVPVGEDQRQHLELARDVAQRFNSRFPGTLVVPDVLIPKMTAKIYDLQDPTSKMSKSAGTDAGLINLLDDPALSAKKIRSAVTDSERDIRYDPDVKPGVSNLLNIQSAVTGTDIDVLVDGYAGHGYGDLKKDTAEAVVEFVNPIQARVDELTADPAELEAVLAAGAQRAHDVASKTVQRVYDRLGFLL

Schistosoma mansoni = assay: High throughput screening of compounds against Schistosoma mansoni motility; format: functional; design: dose or concentration left out as unconfirmed
[5] = microbe, parasite or virus in culture; details: Mycobacterium tuberculosis, 96 h, read-out: pIC50 (converted)
[6] = microbe, parasite or virus in culture; details: Mycobacterium tuberculosis, 72 h, read-out: pIC50 (converted)
[7] = target: Protein translocase subunit SecA (Escherichia coli (strain K12), UniProt P10408); assay: Assay to Identify E. coli SecA ATPase Inhibitors; format: functional
Sequence of Protein translocase subunit SecA (P10408 whole entry): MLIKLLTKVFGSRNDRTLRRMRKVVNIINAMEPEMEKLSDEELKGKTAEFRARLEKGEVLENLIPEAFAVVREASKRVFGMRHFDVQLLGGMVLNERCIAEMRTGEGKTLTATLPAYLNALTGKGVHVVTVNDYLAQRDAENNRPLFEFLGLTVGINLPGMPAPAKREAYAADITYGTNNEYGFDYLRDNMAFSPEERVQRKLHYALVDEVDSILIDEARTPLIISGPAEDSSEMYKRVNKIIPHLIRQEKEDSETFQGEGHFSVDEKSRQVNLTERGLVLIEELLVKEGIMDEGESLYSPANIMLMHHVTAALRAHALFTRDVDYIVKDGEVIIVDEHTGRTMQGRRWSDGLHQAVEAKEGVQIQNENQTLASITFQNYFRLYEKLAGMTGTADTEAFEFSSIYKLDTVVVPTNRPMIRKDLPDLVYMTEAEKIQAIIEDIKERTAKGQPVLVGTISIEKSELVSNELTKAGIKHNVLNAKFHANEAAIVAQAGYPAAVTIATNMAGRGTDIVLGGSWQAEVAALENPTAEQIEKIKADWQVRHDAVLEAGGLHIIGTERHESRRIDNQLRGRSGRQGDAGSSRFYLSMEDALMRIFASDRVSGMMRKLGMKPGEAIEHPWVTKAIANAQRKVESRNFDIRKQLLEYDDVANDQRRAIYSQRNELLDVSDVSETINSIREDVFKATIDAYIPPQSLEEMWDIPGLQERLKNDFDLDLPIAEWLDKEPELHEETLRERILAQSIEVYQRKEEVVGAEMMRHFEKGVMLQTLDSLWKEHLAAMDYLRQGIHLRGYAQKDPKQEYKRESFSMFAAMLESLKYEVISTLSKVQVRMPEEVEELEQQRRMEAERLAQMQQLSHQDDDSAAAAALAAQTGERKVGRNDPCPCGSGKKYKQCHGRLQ

Histidine--tRNA ligase [8] = target: T5, Histidine--tRNA ligase (Trypanosoma cruzi (strain CL Brener), UniProt Q4DA54); assay: Trypanosoma cruzi histidyl tRNA synthetase (Tc-HisRS); format: functional
T5 sequence (Q4DA54 whole entry): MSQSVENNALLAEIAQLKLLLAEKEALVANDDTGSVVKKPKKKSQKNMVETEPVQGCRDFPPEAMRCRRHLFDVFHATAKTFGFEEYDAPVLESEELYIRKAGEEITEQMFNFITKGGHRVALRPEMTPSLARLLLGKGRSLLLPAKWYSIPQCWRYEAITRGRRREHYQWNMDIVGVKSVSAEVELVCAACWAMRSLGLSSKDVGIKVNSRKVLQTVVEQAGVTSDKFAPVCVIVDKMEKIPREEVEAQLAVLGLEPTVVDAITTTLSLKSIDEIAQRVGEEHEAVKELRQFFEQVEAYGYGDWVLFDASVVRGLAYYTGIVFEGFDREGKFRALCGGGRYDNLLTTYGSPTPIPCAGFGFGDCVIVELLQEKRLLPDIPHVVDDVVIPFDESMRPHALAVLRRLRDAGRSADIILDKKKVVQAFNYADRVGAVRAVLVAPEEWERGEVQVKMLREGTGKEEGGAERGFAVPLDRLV

[9] = To identify inhibition of the IFN signalling (Jak-Stat) pathway via expression of an eGFP reporter gene under the control of an IFN-stimulated response element (ISRE) containing MxA promoter.; format: functional, Homo sapiens

SMILES | IC50 (Histidine--tRNA ligase [1]) | IC50 [2] | IC50 [3] | IC50 (Lysine--tRNA ligase) | IC50 [4] | IC50 (Tryptophan--tRNA ligase) | Percent Effect (Schistosoma mansoni) | IC50 [5] | IC50 [6] | IC50 [7] | IC50 (Histidine--tRNA ligase [8]) | pIC50 [9]
Cn1nc2c(cc1=O)CN(Cc1nnc(C3CC3)o1)CC2 | 17.5 µM and 14.6 µM | 77.5 µM and > 100 µM | > 100 µM | > 50.1 µM | > 30.2 µM |  |  |  |  |  |  | 
Cc1cc(CN2CCc3nn(C)c(=O)cc3C2)on1 | 35.6 µM and 40.1 µM | > 100 µM |  | > 50.1 µM |  | > 195 µM | -21.81% |  |  |  |  | 
CCC(C)CNc1ccc2oc(COC)nc2c1 (stereo not drawn) | 11.1 µM and 14.1 µM | 36.7 µM and 47.3 µM | > 100 µM | > 50.1 µM |  |  |  | 34.4 µM | 49.1 µM |  |  | 
COc1cccc(C2CC(=O)Nc3nc(N)sc32)c1OC (stereo not drawn) | 1.21 µM and 1.37 µM | 2.74 µM and 8.57 µM | 45.3 µM and 45 µM | > 50.1 µM |  |  |  | 44.8 µM | 42.2 µM | 9.52 µM and 9.23 µM | 3.98 µM and 3.84 µM | 
Cn1cc(NS(=O)(=O)c2ccc(OC(F)(F)F)cc2)ccc1=O | 25.5 µM and 16.7 µM | 98.4 µM and 74.5 µM |  | > 50.1 µM |  |  |  |  |  |  |  | 5.067 and 4.969
Cn1nc2c(cc1=O)CN(Cc1nc(C(C)(C)C)no1)CC2 | 25.4 µM and 17.9 µM | > 100 µM |  | > 50.1 µM |  |  |  |  |  |  |  | 
CCn1nc2c(cc1=O)CN(Cc1nc(-c3ccccn3)no1)CC2 | 40 µM and 50.3 µM | > 100 µM |  | > 50.1 µM |  |  |  |  |  |  |  | 
Cn1cc(NC(=O)N2CCC(c3ccccc3)CC2)ccc1=O | 2.98 µM and 3.9 µM | 13.6 µM and 15.7 µM | > 100 µM | > 50.1 µM |  |  |  |  |  |  | 63 µM and 58.7 µM | 
CNc1nc2c(s1)C(c1c(F)cccc1Cl)CC(=O)N2 (stereo not drawn) | 7.84 µM and 5.67 µM | 46.5 µM and 15.4 µM |  | > 50.1 µM |  |  |  |  |  | 20.4 µM and 24.2 µM | 20.4 µM and 19.2 µM | 
Cc1ccc(-c2nc(CN3CCc4nn(C)c(=O)cc4C3)co2)cc1 | 14.2 µM and 25.1 µM | > 100 µM and 52.7 µM | > 100 µM |  |  |  |  |  |  |  |  | 
Cn1nc2c(cc1=O)CN(Cc1coc(-c3cccs3)n1)CC2 | 13.1 µM and 11.1 µM | 51.7 µM and 65.4 µM | > 100 µM |  |  |  |  |  |  |  |  | 
Cn1nc2c(cc1=O)CN(CC(=O)Nc1ccc(Cl)cn1)CC2 | 19 µM and 22.2 µM | 90 µM and > 100 µM |  |  |  |  | -19.3% |  |  |  |  | 
COCCN(C)C(=O)Cn1cccc(OC)c1=O | > 100 µM | > 100 µM |  |  |  |  |  |  |  |  |  | 
COCc1nc2cc(NCc3ccncc3)ccc2o1 | 4.22 µM and 3.13 µM | 11.6 µM and 26.4 µM | 50.3 µM and 60.4 µM |  | > 50.1 µM |  |  |  |  |  |  | 
CCCN(C(=O)c1ccccn1)c1nc2c(s1)CCc1c-2cnn1C | 18.7 µM and 14.4 µM | 27.3 µM and 35.3 µM | > 100 µM | > 50.1 µM |  |  |  |  |  |  |  | 
